Reference: ChEMBL document CHEMBL1136193, “Identification of a new chemical class of potent angiogenesis inhibitors based on conformational considerations and database searching” (Bioorg Med Chem Lett, 2003)

How the values were obtained:
[1] = molecular target: Vascular endothelial growth factor receptor 1 (Homo sapiens, UniProt P17948); experiment: Inhibition of vascular endothelial growth factor receptor 1
[2] = molecular target: Vascular endothelial growth factor receptor 2 (Homo sapiens, UniProt P35968); experiment: Inhibition of Vascular endothelial growth factor receptor 2
Chain of Vascular endothelial growth factor receptor 2 (P35968 whole entry): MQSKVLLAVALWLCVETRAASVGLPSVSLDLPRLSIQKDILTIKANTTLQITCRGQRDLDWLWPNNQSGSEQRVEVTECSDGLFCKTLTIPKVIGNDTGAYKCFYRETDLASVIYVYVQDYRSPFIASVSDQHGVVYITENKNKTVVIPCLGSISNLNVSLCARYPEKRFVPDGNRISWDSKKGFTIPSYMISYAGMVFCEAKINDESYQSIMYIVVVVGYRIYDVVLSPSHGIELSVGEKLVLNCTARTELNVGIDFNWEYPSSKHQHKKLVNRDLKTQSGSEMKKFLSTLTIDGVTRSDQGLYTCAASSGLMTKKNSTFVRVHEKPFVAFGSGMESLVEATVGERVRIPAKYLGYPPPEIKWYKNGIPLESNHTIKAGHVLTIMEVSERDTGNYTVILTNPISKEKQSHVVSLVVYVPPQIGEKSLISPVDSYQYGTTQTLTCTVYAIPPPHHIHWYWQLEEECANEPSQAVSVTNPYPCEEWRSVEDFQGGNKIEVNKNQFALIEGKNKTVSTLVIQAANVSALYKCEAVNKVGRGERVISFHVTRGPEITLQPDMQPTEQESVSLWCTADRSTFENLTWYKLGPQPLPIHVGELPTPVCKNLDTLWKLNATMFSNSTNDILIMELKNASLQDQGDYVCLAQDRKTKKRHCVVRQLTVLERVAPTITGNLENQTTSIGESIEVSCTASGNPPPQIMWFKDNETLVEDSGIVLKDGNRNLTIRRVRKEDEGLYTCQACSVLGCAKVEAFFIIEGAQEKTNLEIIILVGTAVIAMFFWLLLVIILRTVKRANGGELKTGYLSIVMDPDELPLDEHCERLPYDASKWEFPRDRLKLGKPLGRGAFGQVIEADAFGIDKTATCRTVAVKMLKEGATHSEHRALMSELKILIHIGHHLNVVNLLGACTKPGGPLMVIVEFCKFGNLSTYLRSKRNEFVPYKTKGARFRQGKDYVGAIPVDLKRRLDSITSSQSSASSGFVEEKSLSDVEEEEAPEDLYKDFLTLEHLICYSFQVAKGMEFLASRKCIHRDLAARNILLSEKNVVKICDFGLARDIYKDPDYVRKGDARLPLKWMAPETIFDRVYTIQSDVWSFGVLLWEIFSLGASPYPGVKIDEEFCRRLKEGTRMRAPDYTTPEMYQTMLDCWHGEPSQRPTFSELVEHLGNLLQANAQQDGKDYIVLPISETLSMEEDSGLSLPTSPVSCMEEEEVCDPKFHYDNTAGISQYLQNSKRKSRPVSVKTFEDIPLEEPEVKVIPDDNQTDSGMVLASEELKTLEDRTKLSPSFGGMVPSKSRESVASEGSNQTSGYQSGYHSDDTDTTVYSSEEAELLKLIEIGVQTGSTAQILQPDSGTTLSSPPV

[3] = molecular target: Mast/stem cell growth factor receptor Kit (Homo sapiens, UniProt P10721); experiment: Inhibition of Proto-oncogene tyrosine-protein kinase Kit
Chain of Mast/stem cell growth factor receptor Kit (P10721 whole entry): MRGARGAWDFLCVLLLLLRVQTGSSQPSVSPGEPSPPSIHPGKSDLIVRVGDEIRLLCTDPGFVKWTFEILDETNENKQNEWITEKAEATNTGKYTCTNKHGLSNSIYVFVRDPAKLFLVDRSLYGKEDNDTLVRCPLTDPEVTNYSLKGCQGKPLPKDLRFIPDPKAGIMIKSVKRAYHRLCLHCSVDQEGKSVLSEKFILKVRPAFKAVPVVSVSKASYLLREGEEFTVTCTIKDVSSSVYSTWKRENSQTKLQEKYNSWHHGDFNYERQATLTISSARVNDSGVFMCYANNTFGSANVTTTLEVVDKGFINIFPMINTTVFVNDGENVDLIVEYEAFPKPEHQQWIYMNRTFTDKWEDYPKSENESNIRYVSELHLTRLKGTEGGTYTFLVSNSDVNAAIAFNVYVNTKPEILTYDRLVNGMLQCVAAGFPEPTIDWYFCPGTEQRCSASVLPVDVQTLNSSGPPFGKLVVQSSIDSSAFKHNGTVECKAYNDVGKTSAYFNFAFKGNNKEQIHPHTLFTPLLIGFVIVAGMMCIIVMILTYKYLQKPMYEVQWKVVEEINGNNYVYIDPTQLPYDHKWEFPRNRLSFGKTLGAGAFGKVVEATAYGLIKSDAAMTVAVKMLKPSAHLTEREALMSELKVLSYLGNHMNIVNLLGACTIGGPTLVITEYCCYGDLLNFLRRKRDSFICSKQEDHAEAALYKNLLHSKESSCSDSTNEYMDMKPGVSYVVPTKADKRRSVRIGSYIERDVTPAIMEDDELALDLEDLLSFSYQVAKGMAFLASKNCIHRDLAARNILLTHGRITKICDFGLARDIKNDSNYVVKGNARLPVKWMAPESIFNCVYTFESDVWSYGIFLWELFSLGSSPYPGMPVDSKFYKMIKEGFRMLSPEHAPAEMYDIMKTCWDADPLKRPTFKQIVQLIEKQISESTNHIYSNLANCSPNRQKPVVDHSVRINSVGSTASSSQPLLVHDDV

[4] = molecular target: Insulin-like growth factor 1 receptor (Homo sapiens, UniProt P08069); experiment: Inhibition of Insulin-like growth factor I receptor
Chain of Insulin-like growth factor 1 receptor (P08069 31-736 limits assumed): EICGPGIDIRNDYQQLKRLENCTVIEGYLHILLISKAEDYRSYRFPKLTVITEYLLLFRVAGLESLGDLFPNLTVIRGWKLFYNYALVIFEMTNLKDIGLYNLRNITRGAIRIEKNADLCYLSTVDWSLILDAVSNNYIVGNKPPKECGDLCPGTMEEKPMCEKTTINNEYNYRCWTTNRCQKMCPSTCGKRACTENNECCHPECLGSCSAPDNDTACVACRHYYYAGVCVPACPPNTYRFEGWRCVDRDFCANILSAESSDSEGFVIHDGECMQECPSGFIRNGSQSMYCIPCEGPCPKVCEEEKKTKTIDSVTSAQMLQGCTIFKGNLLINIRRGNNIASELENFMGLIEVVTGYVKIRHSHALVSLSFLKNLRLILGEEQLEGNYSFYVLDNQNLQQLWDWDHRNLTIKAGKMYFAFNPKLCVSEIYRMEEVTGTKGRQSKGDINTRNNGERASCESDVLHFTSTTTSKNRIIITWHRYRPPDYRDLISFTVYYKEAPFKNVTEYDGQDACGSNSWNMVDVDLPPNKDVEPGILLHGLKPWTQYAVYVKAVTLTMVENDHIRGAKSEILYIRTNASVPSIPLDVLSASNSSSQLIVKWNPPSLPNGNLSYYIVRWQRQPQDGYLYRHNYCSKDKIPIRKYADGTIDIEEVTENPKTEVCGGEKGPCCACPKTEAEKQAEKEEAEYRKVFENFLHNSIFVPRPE
Chain of Insulin-like growth factor 1 receptor (P08069 741-1367 limits assumed): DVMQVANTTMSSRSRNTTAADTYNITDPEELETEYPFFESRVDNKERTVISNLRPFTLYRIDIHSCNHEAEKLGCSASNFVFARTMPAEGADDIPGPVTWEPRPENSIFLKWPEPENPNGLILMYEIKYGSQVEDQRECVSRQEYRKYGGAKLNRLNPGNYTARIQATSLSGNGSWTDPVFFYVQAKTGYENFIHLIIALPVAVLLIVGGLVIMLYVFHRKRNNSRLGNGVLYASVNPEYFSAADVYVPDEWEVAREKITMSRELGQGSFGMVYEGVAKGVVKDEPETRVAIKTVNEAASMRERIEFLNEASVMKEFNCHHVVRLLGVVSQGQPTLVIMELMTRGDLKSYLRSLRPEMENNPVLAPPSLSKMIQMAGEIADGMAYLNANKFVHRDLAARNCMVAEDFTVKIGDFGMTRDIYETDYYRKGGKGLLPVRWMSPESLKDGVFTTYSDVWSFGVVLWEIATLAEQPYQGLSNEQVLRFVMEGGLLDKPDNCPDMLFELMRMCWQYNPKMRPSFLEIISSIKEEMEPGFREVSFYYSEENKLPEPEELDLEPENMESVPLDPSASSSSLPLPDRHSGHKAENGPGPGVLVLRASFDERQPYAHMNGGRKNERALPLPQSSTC

[5] = molecular target: cAMP-dependent protein kinase (PKA) (Homo sapiens, UniProt P22694+P17612+P22612); experiment: Inhibition of Protein kinase A; assay type: protein assay
[6] = molecular target: Hepatocyte growth factor receptor (Homo sapiens, UniProt P08581); experiment: Inhibition of Met proto-oncogene tyrosine kinase
Chain of Hepatocyte growth factor receptor (P08581 whole entry): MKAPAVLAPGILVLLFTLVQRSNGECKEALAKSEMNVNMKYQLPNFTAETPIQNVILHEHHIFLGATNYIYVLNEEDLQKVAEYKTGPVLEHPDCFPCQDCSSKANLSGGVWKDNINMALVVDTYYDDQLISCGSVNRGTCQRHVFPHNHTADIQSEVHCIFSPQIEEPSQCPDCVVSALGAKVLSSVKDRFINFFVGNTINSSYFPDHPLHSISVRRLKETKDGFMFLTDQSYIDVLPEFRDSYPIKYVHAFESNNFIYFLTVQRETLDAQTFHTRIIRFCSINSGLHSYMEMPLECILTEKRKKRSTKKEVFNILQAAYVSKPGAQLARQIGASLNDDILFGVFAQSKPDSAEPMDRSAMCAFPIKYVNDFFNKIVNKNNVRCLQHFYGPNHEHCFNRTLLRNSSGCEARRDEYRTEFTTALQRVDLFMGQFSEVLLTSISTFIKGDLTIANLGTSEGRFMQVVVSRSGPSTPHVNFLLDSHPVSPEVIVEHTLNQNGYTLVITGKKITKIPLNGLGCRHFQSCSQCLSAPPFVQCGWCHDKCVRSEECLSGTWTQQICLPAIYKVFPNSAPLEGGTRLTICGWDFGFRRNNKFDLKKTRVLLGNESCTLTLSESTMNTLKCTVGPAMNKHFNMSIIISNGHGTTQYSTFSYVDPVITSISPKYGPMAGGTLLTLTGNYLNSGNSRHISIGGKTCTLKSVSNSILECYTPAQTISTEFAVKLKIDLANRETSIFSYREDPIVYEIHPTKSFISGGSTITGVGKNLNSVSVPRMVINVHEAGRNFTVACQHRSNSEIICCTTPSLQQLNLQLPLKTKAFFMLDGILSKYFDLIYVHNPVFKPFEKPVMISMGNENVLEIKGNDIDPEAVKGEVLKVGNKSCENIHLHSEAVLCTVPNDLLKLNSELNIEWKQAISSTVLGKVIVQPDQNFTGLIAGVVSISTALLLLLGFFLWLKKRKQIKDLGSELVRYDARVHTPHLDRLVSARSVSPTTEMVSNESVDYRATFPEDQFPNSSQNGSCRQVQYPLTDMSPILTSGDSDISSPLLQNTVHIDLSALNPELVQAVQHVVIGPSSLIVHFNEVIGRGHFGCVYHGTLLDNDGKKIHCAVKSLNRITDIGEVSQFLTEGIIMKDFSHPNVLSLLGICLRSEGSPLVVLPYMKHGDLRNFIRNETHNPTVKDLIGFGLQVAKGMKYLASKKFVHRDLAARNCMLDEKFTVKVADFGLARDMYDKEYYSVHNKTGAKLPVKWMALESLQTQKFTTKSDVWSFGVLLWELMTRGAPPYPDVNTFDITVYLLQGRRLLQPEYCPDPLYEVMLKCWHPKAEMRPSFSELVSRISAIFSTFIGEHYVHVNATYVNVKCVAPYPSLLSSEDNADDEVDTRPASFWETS

[7] = molecular target: Cyclin-dependent kinase 1 (Homo sapiens, UniProt P06493); experiment: Inhibition of Cyclin-dependent kinase 1

IC50 [1] [µM] | IC50 [2] [µM] | IC50 [3] [µM] | IC50 [4] [µM] | IC50 [5] [µM] | IC50 [6] [µM] | IC50 [7] [µM] | SMILES
23 | 3.7 | – | – | – | – | – | O=C(Nc1ccccc1F)c1ccccc1NCc1ccc(F)cc1
– | 0.02 | 0.24 | > 10 | > 10 | > 10 | > 10 | O=C(Nc1ccc(Cl)cc1)c1ccccc1NCc1ccncc1
